Assay results taken from PubChem BioAssay (NCI).
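All cell lines were grown in 96-well plates and treated with compound for 48 hours. GI50: concentration for 50% inhibition of growth. At the TGI there is no net growth.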 Where a SMILES comes first, the peptide text is derived from it. The star is where a group is joined. Boc = CC(C)(C)OC(=O)*; OBn = c1ccc(CO*)cc1

Assays:
Assay in all cases: DTP human tumour cell line panel, 48 h
A498 renal = system: A498 renal
HCC-2998 colon = system: HCC-2998 colon
HCT-15 colon = system: HCT-15 colon
MDA-MB-435 = system: MDA-MB-435
OVCAR-8 ovarian = system: OVCAR-8 ovarian
RPMI-8226 leukemia = system: RPMI-8226 leukemia
SNB-19 CNS = system: SNB-19 CNS
SR leukemia = system: SR leukemia
SW-620 colon = system: SW-620 colon
SK-MEL-2 melanoma = system: SK-MEL-2 melanoma

| Structure (SMILES) | TGI (A498 renal) [µM] | TGI (HCC-2998 colon) [µM] | TGI (HCT-15 colon) [µM] | TGI (MDA-MB-435) [µM] | TGI (OVCAR-8 ovarian) [µM] | TGI (RPMI-8226 leukemia) [µM] | TGI (SNB-19 CNS) [µM] | TGI (SR leukemia) [µM] | TGI (SW-620 colon) [µM] | TGI (SK-MEL-2 melanoma) [µM] | GI50 (A498 renal) [µM] | GI50 (HCC-2998 colon) [µM] | GI50 (HCT-15 colon) [µM] | GI50 (MDA-MB-435) [µM] | GI50 (OVCAR-8 ovarian) [µM] | GI50 (RPMI-8226 leukemia) [µM] | GI50 (SK-MEL-2 melanoma) [µM] | GI50 (SNB-19 CNS) [µM] | GI50 (SR leukemia) [µM] |
| --- | --- | --- | --- | --- | --- | --- | --- | --- | --- | --- | --- | --- | --- | --- | --- | --- | --- | --- | --- |
| Nc1ccc(Nc2cc(=O)[nH]c(=O)[nH]2)cc1 | > 100 | > 100 | > 100 | > 100 | > 100 | > 100 | > 100 | > 100 | > 100 | – | – | – | – | – | – | – | – | – | – |
| COC(=O)c1c(C)cccc1C1CN=NC12Cc1ccc(C)c(C)c1C2=O (stereo not drawn) | > 100 | 90.6 | > 100 | > 100 | > 100 | > 100 | > 100 | > 100 | > 100 | – | – | – | – | – | – | – | – | – | – |
| CC(C)=CCOc1cc(NC(=S)c2ccsc2C)ccc1Cl | > 100 | 88 | > 100 | > 100 | > 100 | 53.1 | > 100 | 84.4 | > 100 | > 100 | – | – | – | – | – | – | – | – | – |
| C=C[C@@]1(O)CCCC[C@@H]1CC(Sc1ccccc1)Sc1ccccc1 | 85 | 26.6 | 34.6 | 33 | 34.1 | 90.2 | 35.6 | > 100 | – | 32.3 | – | – | – | – | – | – | – | – | – |
| Cc1ccc(-c2nnc(CCCCCCCCc3nnc(-c4ccc(C)cc4O)n3N)n2N)c(O)c1 | > 100 | > 100 | > 100 | > 100 | > 100 | > 100 | > 100 | > 100 | > 100 | > 100 | – | – | – | – | – | – | – | – | – |
| O=[N+]([O-])c1ccc2oc(=Nc3ccccc3)c(Nc3ccccc3)nc2c1 | > 100 | > 100 | > 100 | > 100 | > 100 | > 100 | > 100 | > 100 | > 100 | > 100 | – | – | – | – | – | – | – | – | – |
| Cc1ccc(S(=O)(=O)[C@@H](Cl)[C@H]2N=C(Cl)NN=C2c2ccccc2)cc1 | 35.7 | > 100 | 54.5 | 51.4 | 44.6 | > 100 | > 100 | > 100 | 40.8 | 34.8 | – | – | – | – | – | – | – | – | – |
| Cn1c([C@H](C#N)C(=O)c2cc(O)ccc2[N+](=O)[O-])nc2ccccc21 | > 100 | > 100 | > 100 | > 100 | > 100 | > 100 | > 100 | > 100 | – | > 100 | – | – | – | – | – | – | – | – | – |
| C=C(C)C1CC/C(C)=C/CC[C@]2(C)O[C@@H]2CCC2=CC1OC2=O (stereo partly drawn) | > 100 | > 100 | > 100 | > 100 | > 100 | 22.2 | > 100 | 51.5 | – | > 100 | 23.2 | 80 | 42.3 | 49.4 | > 100 | 10.5 | 57.5 | > 100 | 19 |
| CC(C)(C)CC(C)(C)NC(=S)NO | > 100 | > 100 | > 100 | > 100 | > 100 | > 100 | > 100 | > 100 | > 100 | > 100 | – | – | – | – | – | – | – | – | – |
| Cc1nnc2n(c1=O)CCN2C | – | > 100 | > 100 | > 100 | > 100 | > 100 | > 100 | > 100 | > 100 | > 100 | – | – | – | – | – | – | – | – | – |
| CCOC(=O)C(NC(=O)CC)(Nc1ccc(S(=O)(=O)Nc2onc(C)c2C)cc1)C(F)(F)F (stereo not drawn) | – | > 100 | > 100 | > 100 | > 100 | > 100 | > 100 | > 100 | > 100 | > 100 | – | – | – | – | – | – | – | – | – |
| O=S(=O)(O)c1cccc2cccc(N=Nc3c(O)ccc4ccccc34)c12 | > 100 | > 100 | > 100 | > 100 | > 100 | – | > 100 | > 100 | > 100 | > 100 | – | – | – | – | – | – | – | – | – |
| CC12CCCCC1=[N+]([O-])C(C)(C)N2O (stereo not drawn) | – | > 100 | > 100 | > 100 | > 100 | > 100 | > 100 | > 100 | > 100 | > 100 | – | – | – | – | – | – | – | – | – |
| COC(=O)c1c(CC(Cc2ccc3c(c2)CCCC3)C(=O)OC)ccc2c1CCCC2 (stereo not drawn) | > 100 | > 100 | > 100 | > 100 | > 100 | > 100 | > 100 | 86.7 | > 100 | > 100 | – | – | – | – | – | – | – | – | – |
| NC(=O)c1cc(N(CCO)CCO)c([N+](=O)[O-])cc1[N+](=O)[O-] | > 100 | > 100 | > 100 | > 100 | – | > 100 | > 100 | > 100 | > 100 | > 100 | – | – | – | – | – | – | – | – | – |
| CC(C)CC(NC(=O)OC(C)(C)C)C(=O)NC(CC(=O)OCc1ccccc1)C(=O)OCc1ccccc1 (stereo not drawn) (Boc-Leu-Asp(OBn)-OBn; configuration not given here) | > 100 | 56.8 | – | > 100 | > 100 | 97.3 | 99.5 | 63.8 | > 100 | > 100 | – | – | – | – | – | – | – | – | – |
